Like-named read-outs stand apart in the source and are kept apart here.
Key:
MIN6 cells [1] = test: MIN6 cell proliferation by Ki-67 staining and flow cytometry; type: cell-based, mouse; details: for Ki-67-positive cells, combination with GLP-1 / Ki-67-positive cells, combination with LY364947: MIN6; for Ki-67-positive cells, combination with GLP-1: GLP-1 5 nM
MIN6 cells [2] = test: Insulin expression level by flow cytometry, MIN6; type: cell-based, mouse; details: for effect on insulin level over 12 days: MIN6, compound alone, 24 h incubation
INS-1E cells [3] = test: Insulin expression level by flow cytometry, INS-1E; type: cell-based, rat; details: for effect on insulin level over 12 days: compound alone, 24 h incubation; for insulin level: harmine 1 μM
[4] = tested on: hiPSC-derived beta cells organoids; test: Glucose-stimulated insulin secretion by ELISA, hiPSC-derived pancreatic islet organoids; type: cell-based, human; details: 24 h incubation; for insulin secretion by organoids (GSIS, ELISA): compound alone
Method: Differentiation of hiPSC into iPSC-derived β-cell islets was carried out following the protocol established by Pellegrini et al.[50]. A day before differentiation, 1 × 10^4 cells were seeded on coated with Geltrex (Gibco) 12 wells plate in Essential 8 medium (Gibco) with Y-27632 10 µM (Abcam). The appropriate culture media and required components based on the protocol of Pellegrini with modifications, as published in Barzowska et al.[37].
Cells and organoids were homogenized in lysis buffer.
Figure 9 Quercetin and TGFβ inhibitor—LY364947 collectively support insulin release from hiPSC-derived pancreatic islet organoids. (A) The analysis of insulin secretion by ELISA assay. […] The organoids were immunostained for insulin (green) and cytoskeleton (red). The nuclei were stained with Hoechst 33258 (blue). Scale bars, 20 μm.

DYRK1A = target: T1, DYRK1A (Homo sapiens, UniProt Q13627); test: Cook activity assay (DYRK1A-catalyzed phosphorylation of DYRKtide, ADP production linked to PK/LDH NADH oxidation); type: biochemical; details: for IC50: read-out: IC50 (DYRK1A inhibition)
T1 construct: In the assay, the truncated DYRK1A protein restricted to the kinase domain (126–490) was used; made in house; host or cells: E. coli LOBSTR strain

[5] = tested on: DYRK1A-dependent CyclinD1 phosphorylation; test: CyclinD1 phosphorylation profile in transfected HEK293T cells (Western blot); type: cell-based; details: 10 μM, 6 h; HEK293T co-transfected with HA-CyclinD1 and Flag-DYRK1A
[6] = tested on: DYRK1A-related NFAT signaling; test: NFAT activity luciferase assay in HEK293T NFAT cells; type: cell-based; details: for increase in Renilla luciferase activity (NFAT reporter): 10 μM, 3 h pre-treatment, then PMA/IM 5 h, relative to DMSO
[7] = LogP determination by the shake-flask method; type: physicochemical; details: n-octanol/PBS
MIN6 cells [8] = test: MTT cytotoxicity and cell survival assay, MIN6; details: MIN6, 24 h
INS-1E cells [9] = test: MTT cytotoxicity and cell survival assay, INS-1E; details: for concentration range with increased cell viability (MTT): 24 h; for cytotoxic effect, combination with LY364947 or GLP-1: LY364947 […] or GLP-1 5 nM, gossypin […], rutin 1 μM
MIN6 cells [10] = test: Glucose-stimulated insulin secretion (GSIS) quantified by ELISA, MIN6; details: GLP-1 5 nM
[11] = tested on: DYRK1A-controlled calcineurin/NFAT pathway; test: NFAT translocation assay (NFAT-GFP, mCherry-DYRK1A) in HEK293T cells; type: cell-based; details: 10 μM, 3 h, then IM 5 μM 1 h
[12] = 5 μM, 10 μM and 20 μM of compound, DMSO = 100%
[13] = kinase domain (126–490), compound 20 nM–200 μM, ATP (128 µM)

Molecule	increase in proliferation rate (Ki-67-positive cells) vs control (MIN6 cells [1]; MIN6, compound alone)	effect on residual DYRK1A activity (DYRK1A; [12])	IC50 (DYRK1A; [13]) [µM]	CyclinD1 phosphorylation (p-CyclinD1 at Thr289) [5]	increase in Renilla luciferase activity (NFAT reporter) [6]	concentration range with increased cell viability (MTT) (MIN6 cells [8])	concentration range with increased cell viability (MTT) (INS-1E cells [9])	further results
c1ccc(-c2[nH]ncc2-c2ccnc3ccccc23)nc1 [LY364947]	up to 5%	–	–	–	–	–	–	effect on insulin level over 12 days (MIN6 cells [2]): less prominent but constant effect over the 12 days; effect on insulin level over 12 days (INS-1E cells [3]): less prominent but constant effect over the 12 days; insulin secretion by organoids (GSIS, ELISA) [4]: less pronounced effect
O=c1cc(-c2ccc(O)cc2)oc2cc(O[C@@H]3O[C@H](CO)[C@@H](O)[C@H](O)[C@H]3O)cc(O)c12 [apigetrin, 5-hydroxy-2-(4-hydroxyphenyl)-7[(2S,3R,4S,5S,6R)3,4,5-trihydroxy-6-(hydroxymethyl)oxan-2-yl]oxychromen-4-one]	–	no influence on DYRK1A activity	–	–	–	–	–	–
O=c1cc(-c2ccccc2)oc2cc(O)c(O)c(O)c12 [baicalein, 5,6,7-trihydroxy-2-phenylchromen-4-one]	5%	decreased DYRK1A activity dose-dependently	3.6	significantly reduced CyclinD1 phosphorylation	threefold	0.1 to 2.5 µM	0.1 to 2.5 µM	logP at 15 min [7]: 2.55; Ki-67-positive cells, combination with GLP-1 (MIN6 cells [1]; control cells 32%): 55%; Ki-67-positive cells, combination with LY364947 (MIN6 cells [1]; control cells 32%): 48%; insulin secretion (GSIS, ELISA), combination with GLP-1 (MIN6 cells [10]): improve insulin secretion
COc1cc(-c2cc(=O)c3c(O)c(OC)c(OC)c(OC)c3o2)cc(OC)c1OC [gardenin A, 5-hydroxy-6,7,8-trimethoxy-2-(3,4,5-trimethoxyphenyl)chromen-4-one]	–	no influence on DYRK1A activity	–	–	–	–	–	–
O=c1c(O)c(-c2ccc(O)c(O)c2)oc2c(O[C@@H]3O[C@H](CO)[C@@H](O)[C@H](O)[C@H]3O)c(O)cc(O)c12 [gossypin, 2-(3,4-dihydroxyphenyl)-3,5,7-trihydroxy-8-[(2S,3R,4S,5S,6R)-3,4,5-trihydroxy-6-(hydroxymethyl)oxan-2-yl]oxychromen-4-one]	–	decreased DYRK1A activity dose-dependently	1.4	significantly reduced CyclinD1 phosphorylation	twofold	did not influence cell viability	did not influence cell viability	LogP [7]: negative logP; cytotoxic effect, combination with LY364947 or GLP-1 (INS-1E cells [9]): slight cytotoxic effect
COc1ccc2c(c1)[nH]c1c(C)nccc12 [harmine]	about 20%	–	–	–	–	0.01 to 10 µM	1 to 2.5 µM	nuclear translocation of NFAT-GFP despite mCherry-DYRK1A overexpression [11]: induced nuclear translocation of NFAT-GFP; logP at 15 min [7]: 3.24; Ki-67-positive cells (MIN6 cells [1]; MIN6, compound alone, control cells 32%): 50%; Ki-67-positive cells, combination with GLP-1 (MIN6 cells [1]; control cells 32%): 55%; Ki-67-positive cells, combination with LY364947 (MIN6 cells [1]; control cells 32%): 58%; insulin level (MIN6 cells [2]; MIN6, day 12, control 24%, harmine 1 μM): 37%; effect on the GLP-1-induced increase in insulin production level, administered simultaneously with GLP-1 (MIN6 cells [2]; MIN6, GLP-1 5 nM): attenuated; effect on the GLP-1-induced increase in insulin production level, administered simultaneously with GLP-1 (INS-1E cells [3]; GLP-1 5 nM): attenuated; insulin level (INS-1E cells [3]; day 1, control 10%): 37%; insulin level (INS-1E cells [3]; day 5, control 28%): 34%; insulin secretion by organoids (GSIS, ELISA), with LY364947 addition [4]: enhanced by LY364947 addition; insulin secretion by organoids (GSIS, ELISA) [4]: highest insulin secretion level; concentrations at which mild toxicity was observed (MTT) (MIN6 cells [8]): higher than 50 μM
O=c1c(O)c(-c2ccc(O)cc2)oc2c(O)c(O)cc(O)c12 [herbacetin, 3,5,7,8-tetrahydroxy-2-(4-hydroxyphenyl)chromen-4-one]	–	decreased DYRK1A activity dose-dependently	6.3	Moderate inhibition of CyclinD1 phosphorylation	–	Identical results	Identical results	activation of NFAT response ([6]; 1 to 10 μM): only effective at the highest concentration tested; logP at 15 min [7]: 1.72
C[C@@H]1O[C@@H](Oc2c(-c3cc(O)c(O)c(O)c3)oc3cc(O)cc(O)c3c2=O)[C@H](O)[C@H](O)[C@H]1O [myricitrin, 5,7-dihydroxy-3-[(2S,3R,4R,5R,6S)-3,4,5-trihydroxy-6-methyloxan-2-yl]oxy-2-(3,4,5-trihydroxyphenyl)chromen-4-one]	–	no influence on DYRK1A activity	–	–	–	–	–	–
O=c1c(O)c(-c2ccc(O)c(O)c2)oc2cc(O)cc(O)c12 [quercetin, 2-(3,4-dihydroxyphenyl)-3,5,7-trihydroxychromen-4-one]	–	–	–	significantly reduced CyclinD1 phosphorylation	threefold	0.25 to 5 µM	0.25 to 5 µM	effect on residual DYRK1A activity (DYRK1A): decreased DYRK1A activity dose-dependently; IC50 (DYRK1A): 1.7 µM; LogP [7]: 1.40; Ki-67-positive cells, combination with GLP-1 (MIN6 cells [1]; control cells 32%): modest effect; effect on insulin level over 12 days (MIN6 cells [2]): noticeable decrease in insulin level on day 12; effect on insulin level over 12 days (INS-1E cells [3]): noticeable decrease in insulin level on day 12; insulin secretion by organoids (GSIS, ELISA), with LY364947 addition [4]: enhanced by LY364947 addition; insulin secretion by organoids (GSIS, ELISA) [4]: significant increase in insulin secretion
C[C@@H]1O[C@@H](OC[C@H]2O[C@@H](Oc3c(-c4ccc(O)c(O)c4)oc4cc(O)cc(O)c4c3=O)[C@H](O)[C@@H](O)[C@@H]2O)[C@H](O)[C@H](O)[C@H]1O [rutin, 2-(3,4-dihydroxyphenyl)-5,7-dihydroxy-3-[(2S,3R,4S,5S,6R)-3,4,5-trihydroxy-6-[[(2R,3R,4R,5R,6S)-3,4,5-trihydroxy-6-methyloxan-2-yl]oxymethyl]oxan-2-yl]oxychromen-4-one]	–	decreased DYRK1A activity dose-dependently	4.5	significantly reduced CyclinD1 phosphorylation	twofold	did not influence cell viability	did not influence cell viability	LogP [7]: negative logP; cytotoxic effect, combination with LY364947 or GLP-1 (INS-1E cells [9]): slight cytotoxic effect
COc1ccc(-c2cc(=O)c3c(OC)c(OC)c(OC)cc3o2)cc1OC [sinensetin, 2-(3,4-dimethoxyphenyl)-5,6,7-trimethoxychromen-4-one]	–	no influence on DYRK1A activity	–	–	–	–	–	–
GLP-1: GLP-1R agonist	up to 5%	–	–	–	–	–	–	effect on insulin level over 12 days (MIN6 cells [2]): robust increase in insulin production level in the late stage of the experiment (day 5–12); effect on insulin level over 12 days (INS-1E cells [3]): robust increase in insulin production level in the late stage of the experiment (day 5–12)

— article PMC10593742, “Binding mechanism and biological effects of flavone DYRK1A inhibitors for the design of new antidiabetics” (Scientific Reports, 2023)
